How the values were obtained:
[1] = target: Glutamate receptor ionotropic, AMPA (Rattus norvegicus, UniProt P19490+P19491+P19492+P19493); assay: Binding affinity by measuring displacement of [3H]AMPA from Ionotropic glutamate receptor AMPA in rat cortical slice preparation
[2] = target: Glutamate receptor ionotropic, kainate; assay: Binding affinity by measuring displacement of [3H]KAIN from Ionotropic glutamate receptor kainate in rat cortical slice preparation
Glutamate NMDA receptor = assay: Binding affinity by measuring displacement of [3H]CPP from NMDA receptor in rat cortical slice preparation
[3] = target: Glutamate receptor ionotropic, AMPA (Rattus norvegicus) (UniProt P19491+P19492+P19493+P19490); assay: Binding affinity by measuring displacement of [3H]AMPA from Ionotropic glutamate receptor AMPA in rat cortical slice preparation at 100 uM

| SMILES | IC50 [1] | IC50 [2] | IC50 (Glutamate NMDA receptor) | inhibition [3] |
| --- | --- | --- | --- | --- |
| Cc1o[nH]c(=O)c1C(N)C(=O)O (configuration not stated) | > 100 µM | > 100 µM | 4.5 µM |  |
| Cc1onc(OCC(=O)O)c1C(N)C(=O)O (configuration not stated) | > 100 µM | > 100 µM | > 100 µM |  |
| NC(Cc1c(OCC(=O)O)noc1C(F)(F)F)C(=O)O (configuration not stated) | > 100 µM | > 100 µM | > 100 µM | 40% |
| C=C(C)[C@H]1CN[C@H](C(=O)O)[C@H]1CC(=O)O [KAINIC ACID] |  |  | > 100 µM |  |
| Cc1onc(OCC(=O)O)c1CC(N)C(=O)O (configuration not stated) | 90 µM | > 100 µM | > 100 µM |  |
| O=C(O)COc1noc2c1CC(C(=O)O)NC2 (configuration not stated) | > 100 µM | > 100 µM | 16 µM |  |
